Experiments:
GSK3α or GSK3B = test: Measured Km for ATP in the GSK3 in vitro enzymatic activity assay; assay type: biochemical, human; conditions: role: substrate; 100 mM HEPES pH 7.5, 10 mM MgCl2; 1.0 μM peptide substrate (5-FAM-KRREILSRRPpSYR-COOH); 25° C.
Method: Full length human GSK3α or GSK3B expressed as N-terminal GST fusion proteins in baculovirus host were purchased from Carna Biosciences (Japan). The kinase was pre-incubated with ATP (adenosine-5′-triphosphate) for 45 min, then incubated with tested compounds for another 45 min in assay buffer that contains 100 mM HEPES (N-2-hydroxyethylpiperazine-N′-2-ethanesulfonic acid), pH 7.5, 10 mM MgCl2, 1.0 mM DTT, and 0.015% Briji-35. […] Percent inhibition was plotted against compound concentration to generate 10-point dose response curve with 3-fold serial dilution starting from 10 μM. IC50 value was determined from the 4-parameter logistic curve fitting.

GSK3α knockout mice = conditions: blockade of autophagy and mTOR pathway activation; cited from earlier work
human GSK3α = molecular target: T1, human GSK3α (Homo sapiens, UniProt P49840); test: In vitro enzymatic activity assay, GSK3α; assay type: biochemical; conditions: 1.0 mM ATP, 1.0 μM peptide substrate, 120 min, 25° C, read-out: Enzyme GSK3α (IC50)
T1 construct: Full length human GSK3α or GSK3B expressed as N-terminal GST fusion proteins; GST (N); purchased Carna Biosciences (Japan); host or cells: baculovirus host

GSK3B [1] = molecular target: T2, GSK3B (Homo sapiens, UniProt P49841); test: In vitro enzymatic activity assay, GSK3β; assay type: biochemical; parameters: Full length human GSK3α or GSK3B expressed as N-terminal GST fusion proteins; GST (N); purchased Carna Biosciences (Japan); host or cells: baculovirus host; conditions: 1.0 mM ATP, 1.0 μM peptide substrate, 120 min, 25° C, read-out: Enzyme GSK3β (IC50)
GSK3B [2] = molecular target: T2, GSK3B; test: NanoBRET cellular target engagement assay, Nanoluc-GSK3B in HEK293 cells; assay type: cell-based; parameters: expressed in transfected cells; conditions: NanoBRET GSK3β IC50, HEK293 cells, tracer K-8, 2 hours, 37° C
GSK3A = molecular target: T3, GSK3A (Homo sapiens, UniProt P49840); test: NanoBRET cellular target engagement assay, Nanoluc-GSK3A in HEK293 cells; assay type: cell-based; conditions: NanoBRET GSK3α IC50, HEK293 cells, tracer K-8, 2 hours, 37° C
T3 construct: expressed in transfected cells
T3 sequence (P49840 whole entry): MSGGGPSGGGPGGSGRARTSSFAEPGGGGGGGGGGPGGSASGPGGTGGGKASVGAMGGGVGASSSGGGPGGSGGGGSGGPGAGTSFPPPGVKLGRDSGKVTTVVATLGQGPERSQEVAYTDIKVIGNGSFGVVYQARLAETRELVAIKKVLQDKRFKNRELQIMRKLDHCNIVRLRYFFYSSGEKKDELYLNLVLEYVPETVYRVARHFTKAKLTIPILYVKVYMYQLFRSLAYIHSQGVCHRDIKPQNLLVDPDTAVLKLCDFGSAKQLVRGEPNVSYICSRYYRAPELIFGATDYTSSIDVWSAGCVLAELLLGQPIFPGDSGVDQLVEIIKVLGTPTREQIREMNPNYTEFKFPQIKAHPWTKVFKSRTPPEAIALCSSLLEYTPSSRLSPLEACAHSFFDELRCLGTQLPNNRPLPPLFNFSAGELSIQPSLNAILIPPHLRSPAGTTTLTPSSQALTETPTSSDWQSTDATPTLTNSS

T1 sequence (P49840 whole entry, the tested form may be a part): as the sequence (P49840 whole entry) above
T2 sequence (P49841 whole entry, the tested form may be a part): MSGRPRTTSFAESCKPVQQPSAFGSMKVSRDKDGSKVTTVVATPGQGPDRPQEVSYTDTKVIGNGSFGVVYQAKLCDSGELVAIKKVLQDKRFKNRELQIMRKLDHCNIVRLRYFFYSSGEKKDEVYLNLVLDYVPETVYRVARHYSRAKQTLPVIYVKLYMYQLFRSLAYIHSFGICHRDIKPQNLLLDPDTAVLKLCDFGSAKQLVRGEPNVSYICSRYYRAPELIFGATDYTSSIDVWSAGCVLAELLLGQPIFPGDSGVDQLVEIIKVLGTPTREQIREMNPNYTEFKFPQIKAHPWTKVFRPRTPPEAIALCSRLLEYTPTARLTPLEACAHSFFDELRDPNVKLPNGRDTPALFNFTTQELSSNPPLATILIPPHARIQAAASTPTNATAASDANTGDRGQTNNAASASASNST

With `Nc1ncnc2c1ncn2[C@@H]1O[C@H](COP(=O)(O)OP(=O)(O)OP(=O)(O)O)[C@@H](O)[C@H]1O` [ATP, adenosine-5′-triphosphate] the Km (GSK3α or GSK3B) was 10 to 15 µM.

For `CO[C@H]1C[C@@H]2CC[C@@H](C)[C@@](O)(O2)C(=O)C(=O)N2CCCC[C@H]2C(=O)O[C@H]([C@H](C)C[C@@H]2CC[C@@H](OCCO)[C@H](OC)C2)CC(=O)[C@H](C)/C=C(\C)[C@@H](O)[C@@H](OC)C(=O)[C@H](C)C[C@H](C)/C=C/C=C/C=C/1C` [everolimus], the “reversal of mild aging phenotypes of GSK3α knockout mice” value (GSK3α knockout mice) is given as “could be reversed”.

For `CCOc1cc(Cl)c(-n2cnc(N)c(C(=O)Nc3cncc(C(C)N)c3)c2=O)c(Cl)c1` (single isomer, unassigned) [Example 137, (R)-4-amino-N-(5-(1-aminoethyl)pyridin-3-yl)-1-(2,6-dichloro-4-ethoxyphenyl)-6-oxo-1,6-dihydropyrimidine-5-carboxamide or (S)-4-amino-N-(5-(1-aminoethyl)pyridin-3-yl)-1-(2,6-dichloro-4-ethoxyphenyl)-6-oxo-1,6-dihydropyrimidine-5-carboxamide], the IC50 (human GSK3α) was 1.9 nM, the IC50 (GSK3B [1]) was 129 nM and the IC50 (GSK3B [2]) was 87.1 nM. It also gave an IC50 (GSK3A) of 1.7 nM.

`COc1cc(Cl)c(-n2cnc(N)c(C(=O)Nc3cncc(C4(N)CCOCC4)c3)c2=O)c(Cl)c1` [Example 182, 4-amino-N-(5-(4-aminotetrahydro-2H-pyran-4-yl)pyridin-3-yl)-1-(2,6-dichloro-4-methoxyphenyl)-6-oxo-1,6-dihydropyrimidine-5-carboxamide] showed an IC50 (human GSK3α) of 17.4 nM, an IC50 (GSK3B [1]) of 915 nM and an IC50 (GSK3B [2]) of 643 nM. For the same molecule, the IC50 (GSK3A) was 8.2 nM.

Molecule `COc1cc(Cl)c(-n2cnc(N)c(C(=O)Nc3cncc([C@H]4CCC[C@H](C)N4)c3)c2=O)c(Cl)c1` (single isomer, unassigned) [Example 84] has an IC50 (human GSK3α) of 3.8 nM, an IC50 (GSK3B [1]) of 254 nM and an IC50 (GSK3B [2]) of 179 nM. For the same molecule, the IC50 (GSK3A) was 2.5 nM.

Work on `COCC(N)c1cncc(NC(=O)c2c(N)ncn(-c3c(Cl)cc(Cl)cc3Cl)c2=O)c1` (single isomer, unassigned) [Example 49, (R)-4-amino-N-(5-(1-amino-2-methoxyethyl)pyridin-3-yl)-6-oxo-1-(2,4,6-trichlorophenyl)-1,6-dihydropyrimidine-5-carboxamide or (S)-4-amino-N-(5-(1-amino-2-methoxyethyl)pyridin-3-yl)-6-oxo-1-(2,4,6-trichlorophenyl)-1,6-dihydropyrimidine-5-carboxamide] yielded an IC50 (human GSK3α) of 2.5 nM, an IC50 (GSK3B [1]) of 161 nM and an IC50 (GSK3B [2]) of 144 nM. The IC50 (GSK3A) was 2.8 nM.

With `COc1cc(C)c(-n2cnc(N)c(C(=O)N[C@@H]3CCC[C@H](CN)C3)c2=O)c(Cl)c1` (single isomer, unassigned) [Example 206, 4-amino-N-((1R,3S)-3-(aminomethyl)cyclohexyl)-1-((S)-2-chloro-4-methoxy-6-methylphenyl)-6-oxo-1,6-dihydropyrimidine-5-carboxamide or 4-amino-N-((1S,3R)-3-(aminomethyl)cyclohexyl)-1-((S)-2-chloro-4-methoxy-6-methylphenyl)-6-oxo-1,6-dihydropyrimidine-5-carboxamide] the IC50 (human GSK3α) was 9.4 nM, the IC50 (GSK3B [1]) was 260 nM and the IC50 (GSK3B [2]) was 139 nM. It also gave an IC50 (GSK3A) of 3.1 nM.

For `Nc1ncn(-c2c(Cl)cc(F)cc2Cl)c(=O)c1C(=O)Nc1cncc([C@@H]2CCCN2)c1` [Example 149, (S)-4-amino-1-(2,6-dichloro-4-fluorophenyl)-6-oxo-N-(5-(pyrrolidin-2-yl)pyridin-3-yl)-1,6-dihydropyrimidine-5-carboxamide], the IC50 (human GSK3α) was 13.4 nM, the IC50 (GSK3B [1]) was 552 nM and the IC50 (GSK3B [2]) was 519 nM. It also gave an IC50 (GSK3A) of 8.6 nM.

Work on `CCC(N)c1cncc(NC(=O)c2c(N)ncn(-c3c(C)cc(COC)cc3C)c2=O)c1` (single isomer, unassigned) [Example 35, (R)-4-amino-N-(5-(1-aminopropyl)pyridin-3-yl)-1-(4-(methoxymethyl)-2,6-dimethylphenyl)-6-oxo-1,6-dihydropyrimidine-5-carboxamide or (S)-4-amino-N-(5-(1-aminopropyl)pyridin-3-yl)-1-(4-(methoxymethyl)-2,6-dimethylphenyl)-6-oxo-1,6-dihydropyrimidine-5-carboxamide] yielded an IC50 (human GSK3α) of 14.7 nM, an IC50 (GSK3B [1]) of 693 nM and an IC50 (GSK3B [2]) of 412 nM. It also gave an IC50 (GSK3A) of 6.2 nM.

Reference: US20260327191A1, “GSK3a INHIBITORS AND METHODS OF USE THEREOF” (Blueprint Medicines Corporation, priority 2023, published 2026)
